Source: the supplement of paper PMC10307832

Tests used:
Experiment in all cases: relative viability (nuclei count vs DMSO), 5 days (fraction); higher = more cells survive
[1] = tested on: NCI-H1395
Method in brief: (§1)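 Cells from lung cancer lines were seeded into 1536-well plates and, one day later, dosed by pin tool. Treatments were either a single drug or a fixed dose of an anchor drug with five library-drug doses (not always all listed) in √10 steps. After 5 days, nuclei were stained in a one-step fixation (final 0.05% Triton X-100, 1% formaldehyde, 1 ug/ml Hoechst) and counted on 4× images, and relative viability is the treated-to-vehicle nuclei ratio, as the median of duplicate plates.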

[2] = tested on: NCI-H1651
Method in brief: as §1

[3] = tested on: NCI-H1915
Method in brief: as §1

[4] = tested on: NCI-H2228
Method in brief: as §1

[5] = tested on: NCI-H2347
Method in brief: as §1

[6] = tested on: NCI-H2087
Method in brief: as §1

[7] = tested on: NCI-H1944
Method in brief: as §1

[8] = tested on: NCI-H1793
Method in brief: as §1

[9] = tested on: H3255
Method in brief: as §1

[10] = tested on: NCI-H1437
Method in brief: as §1

[11] = tested on: EMC-BAC-2
Method in brief: as §1

[12] = tested on: NCI-H2085
Method in brief: as §1

[13] = tested on: CAL-12T
Method in brief: as §1

[14] = tested on: NCI-H1755
Method in brief: as §1

[15] = tested on: LC-2-ad
Method in brief: as §1

[16] = tested on: LK-2
Method in brief: as §1

[17] = tested on: PC-3 [JPC-3]
Method in brief: as §1

[18] = tested on: SK-LU-1
Method in brief: as §1

[19] = tested on: COR-L 105
Method in brief: as §1

[20] = tested on: NCI-H661
Method in brief: as §1

COCC1(CO)C(=O)C2CCN1CC2 (stereo not given) [PRIMA-1MET] + CC1(C)CCC(c2ccc(Cl)cc2)=C(CN2CCN(c3ccc(C(=O)NS(=O)(=O)c4ccc(N[C@H](CCN5CCOCC5)CSc5ccccc5)c(S(=O)(=O)C(F)(F)F)c4)cc3)CC2)C1 [Navitoclax] (partner 0.5 µM)
relative viability ([1]; first compound 0.2 µM): 1.17 | relative viability ([1]; first compound 0.6325 µM): 1.49 | relative viability ([1]; first compound 2 µM): 1.02 | relative viability ([1]; first compound 6.325 µM): 1.24 | relative viability ([1]; first compound 20 µM): 0.44 | relative viability ([2]; first compound 0.2 µM): 1.15 | relative viability ([2]; first compound 0.6325 µM): 1 | relative viability ([2]; first compound 2 µM): 0.918 | relative viability ([2]; first compound 6.325 µM): 1.19 | relative viability ([2]; first compound 20 µM): 0.974 | relative viability ([3]; first compound 0.2 µM): 0.766 | relative viability ([3]; first compound 0.6325 µM): 0.586 | relative viability ([3]; first compound 2 µM): 0.642 | relative viability ([3]; first compound 6.325 µM): 0.773 | relative viability ([3]; first compound 20 µM): 0.778 | relative viability ([4]; first compound 0.2 µM): 0.9 | relative viability ([4]; first compound 0.6325 µM): 0.839 | relative viability ([4]; first compound 2 µM): 1.09 | relative viability ([4]; first compound 6.325 µM): 0.62 | relative viability ([4]; first compound 20 µM): 0.0661 | relative viability ([5]; first compound 0.2 µM): 0.887 | relative viability ([5]; first compound 0.6325 µM): 0.708 | relative viability ([5]; first compound 2 µM): 0.519 | relative viability ([5]; first compound 6.325 µM): 0.872 | relative viability ([5]; first compound 20 µM): 0.754 | relative viability ([6]; first compound 0.2 µM): 1.03 | relative viability ([6]; first compound 0.6325 µM): 0.901 | relative viability ([6]; first compound 2 µM): 1.22 | relative viability ([6]; first compound 6.325 µM): 1.2 | relative viability ([6]; first compound 20 µM): 0.842 | relative viability ([7]; first compound 0.2 µM): 1.18 | relative viability ([7]; first compound 0.6325 µM): 0.892 | relative viability ([7]; first compound 6.325 µM): 1.02 | relative viability ([7]; first compound 20 µM): 1.08 | relative viability ([8]; first compound 0.2 µM): 0.576 | relative viability ([8]; first compound 0.6325 µM): 0.446 | relative viability ([8]; first compound 6.325 µM): 0.609 | relative viability ([8]; first compound 20 µM): 0.49 | relative viability ([9]; first compound 0.2 µM): 0.557 | relative viability ([9]; first compound 0.6325 µM): 0.522 | relative viability ([9]; first compound 2 µM): 0.515 | relative viability ([9]; first compound 6.325 µM): 0.544 | relative viability ([9]; first compound 20 µM): 0.354 | relative viability ([10]; first compound 0.2 µM): 1.14 | relative viability ([10]; first compound 0.6325 µM): 1.05 | relative viability ([10]; first compound 2 µM): 1.08 | relative viability ([10]; first compound 6.325 µM): 1.14 | relative viability ([10]; first compound 20 µM): 0.968 | relative viability ([11]; first compound 0.2 µM): 1.18 | relative viability ([11]; first compound 0.6325 µM): 1.16 | relative viability ([11]; first compound 2 µM): 1.13 | relative viability ([11]; first compound 6.325 µM): 1.25 | relative viability ([11]; first compound 20 µM): 1.15 | relative viability ([12]; first compound 0.2 µM): 1.2 | relative viability ([12]; first compound 0.6325 µM): 1.04 | relative viability ([12]; first compound 2 µM): 1.09 | relative viability ([12]; first compound 6.325 µM): 0.734 | relative viability ([12]; first compound 20 µM): 0.364 | relative viability ([13]; first compound 0.2 µM): 1.3 | relative viability ([13]; first compound 0.6325 µM): 1.32 | relative viability ([13]; first compound 2 µM): 1.15 | relative viability ([13]; first compound 6.325 µM): 1.3 | relative viability ([13]; first compound 20 µM): 0.583 | relative viability ([14]; first compound 0.2 µM): 1.07 | relative viability ([14]; first compound 0.6325 µM): 1.01 | relative viability ([14]; first compound 2 µM): 0.535 | relative viability ([14]; first compound 6.325 µM): 0.953 | relative viability ([14]; first compound 20 µM): 1.05 | relative viability ([15]; first compound 0.2 µM): 0.483 | relative viability ([15]; first compound 0.6325 µM): 0.375 | relative viability ([15]; first compound 2 µM): 0.511 | relative viability ([15]; first compound 6.325 µM): 0.39 | relative viability ([15]; first compound 20 µM): 0.217 | relative viability ([16]; first compound 0.2 µM): 1.06 | relative viability ([16]; first compound 0.6325 µM): 0.771 | relative viability ([16]; first compound 2 µM): 0.617 | relative viability ([16]; first compound 6.325 µM): 0.726 | relative viability ([16]; first compound 20 µM): 0.133 | relative viability ([17]; first compound 0.2 µM): 0.853 | relative viability ([17]; first compound 0.6325 µM): 0.572 | relative viability ([17]; first compound 2 µM): 0.816 | relative viability ([17]; first compound 6.325 µM): 0.794 | relative viability ([17]; first compound 20 µM): 0.708 | relative viability ([18]; first compound 0.2 µM): 0.848 | relative viability ([18]; first compound 0.6325 µM): 1.06 | relative viability ([18]; first compound 2 µM): 0.789 | relative viability ([18]; first compound 6.325 µM): 1.15 | relative viability ([18]; first compound 20 µM): 0.0933 | relative viability ([19]; first compound 0.2 µM): 0.826 | relative viability ([19]; first compound 0.6325 µM): 0.513 | relative viability ([19]; first compound 2 µM): 0.761 | relative viability ([19]; first compound 6.325 µM): 0.671 | relative viability ([19]; first compound 20 µM): 0.211

COCC1(CO)C(=O)C2CCN1CC2 (stereo not given) [PRIMA-1MET] + CC(C)C[C@H](NC(=O)[C@H](Cc1ccccc1)NC(=O)c1cnccn1)B(O)O [Bortezomib] (partner 0.002 µM)
relative viability ([2]; first compound 0.2 µM): 0.929 | relative viability ([2]; first compound 0.6325 µM): 0.847 | relative viability ([2]; first compound 2 µM): 0.874 | relative viability ([2]; first compound 6.325 µM): 0.975 | relative viability ([2]; first compound 20 µM): 0.844 | relative viability ([20]; first compound 0.2 µM): 0.846 | relative viability ([20]; first compound 0.6325 µM): 0.69 | relative viability ([20]; first compound 6.325 µM): 0.817 | relative viability ([20]; first compound 20 µM): 0.623 | relative viability ([3]; first compound 0.2 µM): 1.07 | relative viability ([3]; first compound 0.6325 µM): 0.695 | relative viability ([3]; first compound 2 µM): 0.918 | relative viability ([3]; first compound 6.325 µM): 0.764 | relative viability ([3]; first compound 20 µM): 0.956 | relative viability ([4]; first compound 0.2 µM): 1.1 | relative viability ([4]; first compound 0.6325 µM): 0.957 | relative viability ([4]; first compound 2 µM): 1.09 | relative viability ([4]; first compound 6.325 µM): 1.04 | relative viability ([4]; first compound 20 µM): 0.0398 | relative viability ([5]; first compound 0.2 µM): 1.33 | relative viability ([5]; first compound 0.6325 µM): 1.11 | relative viability ([5]; first compound 6.325 µM): 1.07 | relative viability ([5]; first compound 20 µM): 0.847 | relative viability ([6]; first compound 0.2 µM): 1 | relative viability ([6]; first compound 0.6325 µM): 0.673 | relative viability ([6]; first compound 2 µM): 0.795 | relative viability ([6]; first compound 6.325 µM): 0.888 | relative viability ([6]; first compound 20 µM): 0.647 | relative viability ([9]; first compound 0.2 µM): 0.814 | relative viability ([9]; first compound 0.6325 µM): 0.461 | relative viability ([9]; first compound 2 µM): 0.771 | relative viability ([9]; first compound 6.325 µM): 0.815 | relative viability ([9]; first compound 20 µM): 0.69 | relative viability ([10]; first compound 0.2 µM): 0.573 | relative viability ([10]; first compound 0.6325 µM): 0.403 | relative viability ([10]; first compound 2 µM): 0.538 | relative viability ([10]; first compound 6.325 µM): 0.594 | relative viability ([10]; first compound 20 µM): 0.432 | relative viability ([11]; first compound 0.2 µM): 1.15 | relative viability ([11]; first compound 0.6325 µM): 1.02 | relative viability ([11]; first compound 2 µM): 0.952 | relative viability ([11]; first compound 6.325 µM): 1.03 | relative viability ([11]; first compound 20 µM): 1.08 | relative viability ([12]; first compound 0.2 µM): 1.08 | relative viability ([12]; first compound 0.6325 µM): 0.978 | relative viability ([12]; first compound 2 µM): 0.856 | relative viability ([12]; first compound 6.325 µM): 0.609 | relative viability ([12]; first compound 20 µM): 0.392 | relative viability ([13]; first compound 0.2 µM): 0.862 | relative viability ([13]; first compound 0.6325 µM): 0.947 | relative viability ([13]; first compound 2 µM): 1.15 | relative viability ([13]; first compound 6.325 µM): 0.946 | relative viability ([13]; first compound 20 µM): 0.245 | relative viability ([14]; first compound 0.2 µM): 1.11 | relative viability ([14]; first compound 0.6325 µM): 0.892 | relative viability ([14]; first compound 2 µM): 0.877 | relative viability ([14]; first compound 6.325 µM): 0.974 | relative viability ([14]; first compound 20 µM): 0.975 | relative viability ([15]; first compound 0.2 µM): 1.11 | relative viability ([15]; first compound 0.6325 µM): 0.981 | relative viability ([15]; first compound 2 µM): 0.695 | relative viability ([15]; first compound 6.325 µM): 1.07 | relative viability ([15]; first compound 20 µM): 0.91 | relative viability ([17]; first compound 0.2 µM): 0.958 | relative viability ([17]; first compound 0.6325 µM): 0.688 | relative viability ([17]; first compound 2 µM): 0.874 | relative viability ([17]; first compound 6.325 µM): 0.858 | relative viability ([17]; first compound 20 µM): 0.792 | relative viability ([18]; first compound 0.2 µM): 1.42 | relative viability ([18]; first compound 0.6325 µM): 1.07 | relative viability ([18]; first compound 6.325 µM): 1.2 | relative viability ([18]; first compound 20 µM): 0.617 | relative viability ([19]; first compound 0.2 µM): 1.12 | relative viability ([19]; first compound 0.6325 µM): 0.588 | relative viability ([19]; first compound 2 µM): 0.544 | relative viability ([19]; first compound 6.325 µM): 0.715 | relative viability ([19]; first compound 20 µM): 0.163
